Several values for one entry are separate records, joined by “and”; a condition that tells them apart may be missing. Equal values may be shown once. Read-outs that look alike come from different tables or passages of the source.
Key:
[1] = system: A/Hong Kong/8/1968 (H3N2); test: microbe, parasite or virus in culture; assay type: cell-based, Influenza A virus
A/Weiss/1943 (H1N1) = test: microbe, parasite or virus in culture; assay type: cell-based, Influenza A virus
[2] = system: A/Puerto Rico/8/1934 (H1N1); test: microbe, parasite or virus in culture; assay type: cell-based, Influenza A virus
[3] = system: IAV H1N1 and H3N2 isolates; test: microbe, parasite or virus in culture; assay type: cell-based, Influenza A virus
[4] = system: A/Puerto Rico/8/1934 (H1N1); parameters: species or system BALB/c mice; conditions: mouse, in vivo
[5] = system: A/Puerto Rico/8/1934 (H1N1); parameters: species or system BALB/c mice; conditions: mouse, in vivo; remark: listed apart in the source
A/Malaya/302/1954 (H1N1) = test: microbe, parasite or virus in culture; assay type: cell-based, Influenza A virus
[6] = system: A/Hong Kong/4801/2014 (H3N2); test: microbe, parasite or virus in culture; assay type: cell-based; conditions: Influenza A virus, H3N2, MDCK
in vitro [7] = conditions: dog
A549 cells = conditions: human
[8] = system: A/Wilson-Smith/1933 (H1N1); test: microbe, parasite or virus in culture; assay type: cell-based; conditions: Influenza A virus, H1N1, MDCK
[9] = system: A/New York/18/2009 (H1N1); test: microbe, parasite or virus in culture; assay type: cell-based; conditions: Influenza A virus, H1N1, MDCK
A/WSN/1933 (H1N1) = test: microbe, parasite or virus in culture; assay type: cell-based; conditions: Influenza A virus, MDCK
[10] = system: A/California/07/2009 (H1N1); test: microbe, parasite or virus in culture; assay type: cell-based; conditions: Influenza A virus, H1N1, MDCK
[11] = mouse, in vivo; cited from earlier work
B/Florida/78/2015 = test: microbe, parasite or virus in culture; assay type: cell-based; conditions: Influenza B virus, MDCK
HepG2 cells = conditions: human
[12] = system: HPAI H5N1 and H7N9 isolates; test: microbe, parasite or virus in culture; assay type: cell-based; conditions: Influenza A virus, MDCK, read-out: EC50 values, range over isolates
[13] = system: A/cattle/Texas/56283/2024 (H5N1); test: microbe, parasite or virus in culture; assay type: cell-based; conditions: Influenza A virus, H5N1, MDCK
[14] = system: A/Puerto Rico/8/1934 (H1N1); conditions: mouse, in vivo; cited from earlier work
A/Taiwan/1/2017 (H7N9) = test: microbe, parasite or virus in culture; assay type: cell-based; conditions: Influenza A virus, H7N9, MDCK
B/Lee/1940 = test: microbe, parasite or virus in culture; assay type: cell-based; conditions: Influenza B virus, MDCK
[15] = system: A/California/2/2014 (H3N2); test: microbe, parasite or virus in culture; assay type: cell-based; conditions: Influenza A virus, H3N2, MDCK
A/Anhui/1/2013 (H7N9) = test: microbe, parasite or virus in culture; assay type: cell-based; conditions: Influenza A virus, H7N9, MDCK
A/Perth/16/2009 (H3N2) = test: microbe, parasite or virus in culture; assay type: cell-based; conditions: Influenza A virus, H3N2, MDCK
[16] = system: A/Michigan/45/2015 (H1N1); test: microbe, parasite or virus in culture; assay type: cell-based; conditions: Influenza A virus, H1N1, MDCK
[17] = system: A/Switzerland/971593/2013 (H3N2); test: microbe, parasite or virus in culture; assay type: cell-based; conditions: Influenza A virus, H3N2, MDCK
A/Kansas/14/2017 (H3N2) = test: microbe, parasite or virus in culture; assay type: cell-based; conditions: Influenza A virus, H3N2, MDCK
[18] = Balb/c, mouse, in vivo
[19] = cited from earlier work
[20] = system: A/Brisbane/05/2018 (H1N1); test: microbe, parasite or virus in culture; assay type: cell-based; conditions: Influenza A virus, H1N1, MDCK
in vitro [21] = conditions: human
[22] = system: A/Vietnam/1203/2004 (H5N1); test: microbe, parasite or virus in culture; assay type: cell-based; conditions: Influenza A virus, H5N1, MDCK
[23] = system: A/Hong Kong/213/2003 (H5N1); test: microbe, parasite or virus in culture; assay type: cell-based; conditions: Influenza A virus, H5N1, MDCK
[24] = system: A/Mexico/4108/2009 (H1N1); test: microbe, parasite or virus in culture; assay type: cell-based; conditions: Influenza A virus, H1N1, MDCK

Compound O=C1c2c(O)c(=O)ccn2N([C@@H]2c3ccccc3SCc3c2ccc(F)c3F)[C@@H]2COCCN12 [Baloxavir, baloxavir, reference compound] has an EC50 ([1]; read-out: EC50) of 0.68 nM, an EC50 (A/Weiss/1943 (H1N1); Influenza A virus, H1N1, MDCK) of 0.4 nM and an EC50 ([2]; Influenza A virus, H1N1, MDCK) of 0.57 nM.

In the case of CCOC(=O)C1=C[C@@H](OC(CC)CC)[C@H](NC(C)=O)[C@@H](N)C1 [Oseltamivir, oseltamivir, reference compound], the “shift in EC50 values relative to reference strain” value [3] is reported as under 2 fold, the Fold shift [1] is reported as 0.09 and the EC50 ([1]; read-out: EC50) is reported as 90 nM. The EC50 (A/Weiss/1943 (H1N1); Influenza A virus, H1N1, MDCK) was 1050 nM, the Lung viral load [4] was “comparable to the vehicle control” and the “body weight loss leading to euthanasia” value [5] was over 25%. For the same compound, the Fold shift (A/Malaya/302/1954 (H1N1)) was 1.19 and the EC50 ([2]; Influenza A virus, H1N1, MDCK) was 970 nM.

COC[C@@]1(C)COC[C@@H](COc2ccc(-c3cc(C(N)=O)c(O)nc3C(F)(F)F)cc2)O1 [VNT-101] gave an EC50 [6] of 2.59 nM, an EC90 [6] of 3.71 nM and a CC50 (in vitro [7]) of over 100000 nM. It also gave a CC50 (A549 cells) of over 100000 nM, an EC50 [8] of 26.3 nM and an EC90 [8] of 50.6 nM. It also gave an EC50 [9] of 1.85 nM, an EC90 [9] of 5.12 nM and an EC50 (A/WSN/1933 (H1N1)) of 115 nM. It also gave an EC90 (A/WSN/1933 (H1N1)) of 191 nM, an EC50 [10] of 8.39 nM and an EC90 [10] of 19.2 nM. The Cmin [11] was 3.49 ± 1.35 µM, the EC50 (B/Florida/78/2015) was 43700 nM and the EC90 (B/Florida/78/2015) was over 50000 nM. It also gave a CC50 (HepG2 cells) of over 100000 nM, an EC50 ([3]; Influenza A virus, MDCK, read-out: mean EC50 values, range over isolates) of 2 to 18 nM and an EC50 ([1]; Influenza A virus, H3N2, MDCK) of over 50000 nM. It also gave an EC90 ([1]; Influenza A virus, H3N2, MDCK) of over 50000 nM, an EC50 ([1]; read-out: EC50) of over 50000 nM and an EC50 [12] of 19 to 69 nM. For the same compound, the EC50 [13] was 65 nM, the “protection from lethality, prophylaxis” value [14] was “protected mice from lethality” and the EC50 (A/Weiss/1943 (H1N1)) was 123 nM. It also gave an EC50 (A/Weiss/1943 (H1N1); Influenza A virus, H1N1, MDCK) of 123 nM, an EC90 (A/Weiss/1943 (H1N1); Influenza A virus, H1N1, MDCK) of 210 nM and an EC50 (A/Taiwan/1/2017 (H7N9)) of 69 nM. It also gave an EC50 (B/Lee/1940) of over 47500 nM, an EC90 (B/Lee/1940) of over 50000 nM and an EC50 [15] of 2.2 nM. The EC90 [15] was 3.41 nM, the EC50 (A/Anhui/1/2013 (H7N9)) was 24 nM and the EC50 (A/Perth/16/2009 (H3N2)) was 4.05 nM. For the same compound, the EC90 (A/Perth/16/2009 (H3N2)) was 5.68 nM, the EC50 [16] was 17.7 nM and the EC90 [16] was 29.4 nM. The EC50 [17] was 2.19 nM, the EC90 [17] was 3.32 nM and the EC50 (A/Kansas/14/2017 (H3N2)) was 3.14 nM. The EC90 (A/Kansas/14/2017 (H3N2)) was 18 nM, the fAUC [18] was 3.045 µM·h and the fCmin [18] was 0.10 µM. For the same compound, the “percent plasma protein binding” value [19] was 97.1%, the EC50 [20] was 6.55 nM and the EC90 [20] was 11.2 nM. The CC50 (in vitro [21]; Proliferating condition CC50) was 72800 nM, the CC50 (in vitro [21]; Stationary condition CC50 (mean)) was over 80400 nM and the CC50 (in vitro [21]; Stationary condition CC50, individual runs) was over 100000 nM. For the same compound, the “final mean body weight loss” value [5] was 21.1%, the “maximum mean body weight loss” value [5] was 24.4% and the “maximum mean body weight loss” value ([5]; 30 mg/kg) was 13.6% and 25.1%. It also gave a Survival ([5]; po, 100 mg/kg) of 33%, an EC50 [22] of 25 nM and an EC50 [23] of 19 nM. For the same compound, the EC50 (A/Malaya/302/1954 (H1N1); Influenza A virus, H1N1, MDCK) was over 50000 nM, the EC90 (A/Malaya/302/1954 (H1N1); Influenza A virus, H1N1, MDCK) was over 50000 nM and the EC50 [24] was 14.4 nM. For the same compound, the EC90 [24] was 112 nM, the EC50 [2] was 2.1 nM and 2 nM and the EC50 ([2]; Influenza A virus, H1N1, MDCK) was 2.08 nM. The EC90 ([2]; Influenza A virus, H1N1, MDCK) was 3.22 nM and the EC50 ([2]; Influenza A virus, H1N1, MDCK, read-out: mean EC50) was 5 nM.

Reference: article PMC12888856 (Antimicrobial Agents and Chemotherapy, 2025)
